“Also recorded” adds a separate entry of the source. Ends that are not written are not given here.
How the values were obtained:
SMAR1 [1] = experiment: Peptide interaction assay by ITC, SMAR1; type: binding; conditions: 25° C.
SMAR1 [2] = target: T1, SMAR1 (Homo sapiens, UniProt Q8N9N5); experiment: SMAR1 stabilization/induction in HCT116 cells (western blot); type: cell-based; conditions: peptide treatment 48 hours
T1 construct: HCT116 cells treated with different available peptides for 48 hours stabilized SMAR1 expression; endogenous in cells; host or cells: HCT116 p53+/+, HCT116 p53-/-, MCF7, SW620, NCI-H522, MDA-MB231
T1 sequence (Q8N9N5 1-519): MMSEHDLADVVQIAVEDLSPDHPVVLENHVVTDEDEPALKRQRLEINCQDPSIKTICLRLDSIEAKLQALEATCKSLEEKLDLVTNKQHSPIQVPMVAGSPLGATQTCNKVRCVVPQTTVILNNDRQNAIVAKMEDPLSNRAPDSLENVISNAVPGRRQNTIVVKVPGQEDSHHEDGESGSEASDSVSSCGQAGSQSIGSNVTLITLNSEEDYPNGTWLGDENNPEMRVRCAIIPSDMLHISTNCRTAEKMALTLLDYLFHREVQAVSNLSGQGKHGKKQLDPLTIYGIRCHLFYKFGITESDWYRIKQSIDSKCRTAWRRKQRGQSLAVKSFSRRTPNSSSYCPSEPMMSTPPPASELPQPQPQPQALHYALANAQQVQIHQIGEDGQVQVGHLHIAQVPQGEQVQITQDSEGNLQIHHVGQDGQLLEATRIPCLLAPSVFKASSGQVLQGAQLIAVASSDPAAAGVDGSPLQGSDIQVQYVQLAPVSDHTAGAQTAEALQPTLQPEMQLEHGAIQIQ

MDA-MB231 cells = experiment: Annexin V staining by flow cytometry (FACS); type: cell-based, Human; conditions: after peptide treatment
HCT116 cells = experiment: Colony formation assay; type: cell-based
Description: 200 HCT116 cells seeded in 35 mm petri dishes and cultured for 24 hours. 10 μg of AT-01D added fresh every two days up to day 12th. Cell were washed with 1× Phosphate Buffer Saline and then fixed using 3% Para-formaldehyde for 10 minutes. Cells were washed and stained with Crystal violet for 30 minutes. After washing with PBS plates were kept inverted and air dried. Colonies were counted using inverted bright field microscope (Nikon). A group of cells were identified to be a colony that consists of more than 50 cells.

SMAR1 [3] = target: T1, SMAR1; experiment: SMAR1 stabilization across a variety of cancer cell lines (MCF7, SW620, NCI-H522, HCT116p53-/-, MDA-MB231); type: cell-based; conditions: different concentrations
[4] = tested on: MDA-MB231 breast cancer cells; experiment: Wound healing / cell migration assay; type: cell-based, Human; conditions: MDA-MB231, 10 μg peptide, recorded up to 16 hours, vs DMSO control
Description: MDA-MB231 breast cancer cells (1×10^^6) were seeded in a 6 well plate and maintained in L15 DMEM medium supplemented with 10% FBS and 100 Units of Penicillin Streptomycin antibiotics for 24 hours. Cells were treated for 24 hours with AT-01C and AT-01D peptides of 10 μg each. Post 24 hours wound was created and washed with medium to remove the cells detached during wound creation. Fresh peptides were added plate was mounted at the microscope chamber maintaining the temperature of 37° C. Images were acquired in NIKON Confocal Microscope for 5 minutes interval. Time lapse was set for 16 hours and images were compiled to make the video movie of the cell migration.

SMAR1 [5] = experiment: PCR of SMAR1 mRNA in HCT116p53+/+ cells; conditions: 48 hours
SMAR1 [6] = target: T1, SMAR1; experiment: SMAR1 induction in HCT116p53-/- cells; type: cell-based
HCT116 cells (carcinoma) = experiment: HCT116 xenograft in SCID mice; type: in vivo; conditions: 25 mg/kg daily, 21 days of treatment
Description: (§1) SCID mice were injected subcutaneously with either 1 million HCT116 cells (carcinoma) or HT29 cells (adenocarcinoma) both of which are colon cancer cells. After 2 weeks tumors developed could be seen and the process of injecting AT-01C peptide was initiated. For HCT116 xenograft mice model AT-01C peptide of 25 mg/kg body weight of mice was injected intra-peritoneally. In case of HT29 xenograft mice model AT-01C peptide of 50 mg/kg body weight of mice was injected intra-peritoneally. Stock concentration of the AT-01C was 10 mg/ml. Both the mice group were injected with AT-01C peptide for 21 days daily just 5 mm away from the tumors. The daily injection was performed by injecting AT-01C surrounding the tumors being developed. After 21 days of injection tumors excised and their weight and volume was measured.
(§2) Tumors raised in SCID mice by subcutaneously injecting either 1 million HCT116 cells or HT29 cells (Xenograft model). After tumors developed and were visible to eyes AT-01C peptide treatment was started. For tumors raised using HCT116 colon cancer cells AT-01C of 25 mg/kg body weight of mice was injected intra-peritoneally. AT-01C peptide of 50 mg/kg body weight was injected intra-peritoneally as treatment for tumors raised with HT29 cells. AT-01C was injected daily surrounding the tumor 5 mm away from it. After 21 days of peptide injection, mice were sacrificed and tumors excised. […]

[7] = tested on: HT29 cells (adenocarcinoma); experiment: HT29 xenograft in SCID mice; type: in vivo; conditions: 50 mg/kg daily, 21 days of treatment
Description: as §1, §2

[8] = target: T2, Scaffold Matrix Attachment Region Binding Protein 1 (SMAR1), full length (UniProt Q8N9N5 1-519); experiment: ITC, 25 C
T2 construct: This molecule also stands for endogenous SMAR1 of HCT116 cells in the functional rows
T2 sequence: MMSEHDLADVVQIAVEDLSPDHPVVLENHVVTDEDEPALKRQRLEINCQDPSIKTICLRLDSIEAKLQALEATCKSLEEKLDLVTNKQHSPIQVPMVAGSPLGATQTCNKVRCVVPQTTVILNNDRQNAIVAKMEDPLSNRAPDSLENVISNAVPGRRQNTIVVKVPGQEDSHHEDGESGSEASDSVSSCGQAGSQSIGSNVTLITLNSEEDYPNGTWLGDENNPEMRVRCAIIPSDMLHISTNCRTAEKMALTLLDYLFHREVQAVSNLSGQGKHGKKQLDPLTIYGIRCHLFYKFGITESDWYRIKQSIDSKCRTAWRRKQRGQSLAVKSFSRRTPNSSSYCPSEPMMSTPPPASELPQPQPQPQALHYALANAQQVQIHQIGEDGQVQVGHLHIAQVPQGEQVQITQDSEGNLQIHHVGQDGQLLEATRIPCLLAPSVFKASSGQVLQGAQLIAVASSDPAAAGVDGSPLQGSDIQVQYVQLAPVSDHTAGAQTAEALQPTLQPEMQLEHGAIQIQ

“GQVWEATATVNAIRGSVTPAVSQFNARTAD (The sequence is developed from MPT63 of M. tuberculosis) [AT-01, 30 amino acid peptide synthesized from MPT-63 of M. tuberculosis]” was tested, and the “interaction with SMAR1 (ITC)” value (SMAR1 [1]) was “failed to interact with SMAR1” and the “SMAR1 stabilization / induction” value (SMAR1 [2]) was “very less or no induction of SMAR1”.

“NAIRGSVTPAVSQFN (The sequence is developed from MPT63 of M. tuberculosis) [AT-01D, 15 amino acid peptide derived from AT01]” was tested, and the “cell death (Annexin V)” value (MDA-MB231 cells) was “no signs of cell death”, the “colony formation / rate of cell proliferation” value (HCT116 cells; HCT116, 10 μg, 12 days, vs DMSO control) was “delayed or decreased” and the “apoptotic cells in colony formation culture” value (HCT116 cells; HCT116, till the 12th day) was “No apoptotic cells or group of cells observed”. The SMAR1 stabilization (SMAR1 [3]) was “heightened effectiveness”, the cell migration [4] was “mitigation of anticipated cell migration; also recorded: attenuate migration” and the “transcriptional regulation of SMAR1 (PCR)” value (SMAR1 [5]) was “failed to control the transcriptional regulation of SMAR1”. The “interaction with SMAR1 (ITC)” value (SMAR1 [1]) was “positive results”, the “induction of SMAR1” value (SMAR1 [6]) was “induction of SMAR1 was observed” and the “SMAR1 stabilization / induction” value (SMAR1 [2]) was “heightened effectiveness; also recorded: superior induction of SMAR1; also recorded: stabilized SMAR1 the most; also recorded: significantly induce expression of SMAR1”.

ATATVNAIRGSVTPAVSQFN [AT-01C] was tested, and the survival of mice (HCT116 cells (carcinoma)) was “All the mice survived” and the survival of mice [7] was “All the mice survived”.

B1: AT-01 (peptide)
peptide: GQVWEATATVNAIRGSVTPAVSQFNARTAD
notes: also called parent 30 amino acid peptide
B1: no binding [8].

From patent US20190382454A1, “A MODIFIED PEPTIDE AS AN ANTICANCER AGENT” (Amrita Therapeutics Limited, priority 2015, published 2019)
